Measurements: patent publication US11273166B2, “Methods and compositions for the treatment of obesity” (Monash University, priority 2017, dated 2022)
Residues, ends and D or L forms follow the SMILES beside them. *: point of attachment. Cbz = O=C(OCc1ccccc1)*

How the values were obtained:
Type in all cases: in vivo, mouse
[1] = system: AgRP neurons (hM4Di DREADD); assay: CNO in Agrp-Ires-Cre; Npy-hrGFP mice with rAAV-hM4Di-mCherry (DREADD) in the ARC; conditions: CNO 1.5 mg/kg/day i.p., 14 days
From the text: FIG. 3. TCPTP deletion in AgRP neurons or AgRP neuronal inhibition promotes WAT browning and energy expenditure. a) Body weights, b) body composition, c) energy expenditure, d) daily food intake and e) BAT Ucp-1 gene expression in 18-week-old AgRP-TC and Ptpn2^fl/fl male mice. Inguinal WAT (ingWAT) was extracted from Ptpn2^fl/fl and AgRP-TC male mice and processed for f) histology (hematoxylin and eosin: H&E) and immunohistochemistry, g) quantitative PCR and h) immunoblotting. i) Ptpn2^fl/fl and AgRP-TC and Ptpn2^fl/fl male mice were subjected to ^18F-fluoro-2-deoxy-D-glucose (^18F-FDG) positron emission tomography (PET)-computed tomography (CT). Representative images and ingWAT ^18F-FDG standard uptake values (SUV) and normalised uptake per tissue volume are shown. Ptpn2^fl/fl and AgRP-TC male mice ingWAT depots were bilaterally sham-operated or denervated with 6-ODHA and j) weekly body weights recorded and k) energy expenditure measured. l) Ptpn2^fl/fl, AgRP-TC or AgRP-TC-IR male mice were fasted overnight and administered (intraperitoneal) insulin (0.85 mU/g, 15 min) and brains extracted for ARC p-AKT immunohistochemistry. m) Energy expenditure, n) body weights and o) ingWAT weights in 14-week-old Ptpn2^fl/fl, AgRP-TC or AgRP-TC-IR male mice. p-r) IngWAT and BAT were extracted from Ptpn2^fl/fl, AgRP-TC or AgRP-TC-IR male mice for gene expression analyses or histology/immunohistochemistry. s-t) 10-week-old Npy-hrGFP; Agrp-Ires-Cre mice were bilaterally injected with rAAV-hM4Di-mCherry into the ARC. […] Representative and quantified results (means±SEM) are shown for the indicated number of mice. * for significance between Ptpn2^fl/fl and AgRP-TC mice; # for significance between treated AgRP-TC or AgRP verses AgRP-TC-IR mice.
FIG. 10. […] Representative and quantified results (means±SEM) are shown for the indicated number of mice. […]

[2] = system: diet-induced obese mice; assay: ICV Claramine for 10 consecutive days in 12-week high fat fed mice; conditions: ICV 1 and 10 μg/animal/day
Experimental: (§1) FIG. 23. CNS administration of PTP1B inhibitor (Claramine) dose dependently attenuates body weight, adiposity and food intake without regulating energy expenditure in diet-induced obese mice. […] Data were collected into 5 min time bins and are presented as percentage of total behavior. Crossover graphs indicating the point of transition from eating to resting and the dashed line represents the time bin in which groups spent an equivalent amount of time eating and resting and is represented as f) time of cross over.

[3] = system: 8-10-week C57BL/6 male mice; assay: Intranasal RU486 or Claramine for 10 consecutive days in 8-10-week C57BL/6 male mice; conditions: RU486 1, 5, 10 or Claramine 1, 10 and 20 μg/animal/day
Experimental: 8-10-week C57BL/6 male mice were mice received glucocorticoid antagonist (RU486: 1, 5, 10 μg/animal/day; intranasal; 12 μl total volume) and/or PTP1B inhibitor (Claramine: 1, 10 and 20 μg/animal/day, intranasal; 12 μl total volume) for 10 consecutive days and effects on a, f) body weight, b, g) food intake, c, h) adiposity (EchoMRI and fad pad weight) was determined.

[4] = system: diet-induced obese mice; assay: Behavioral satiety sequence after ICV Claramine in overnight fasted high fat fed mice; conditions: ICV 1 and 10 μg/animal
Experimental: as §1

[5] = system: PTP1B levels; assay: ICV MG132 in fasted (24 h) mice re-fed 4 h; MBH immunoblotting for PTP1B; conditions: ICV 2 μl 50 μM, 4 h re-feeding
[6] = system: TCPTP protein in the MBH; assay: ICV MG132 in fasted (24 h) mice re-fed 4 h; MBH immunoblotting for TCPTP; conditions: ICV 2 μl 50 μM, 4 h re-feeding
Experimental: The alterations in hypothalamic TCPTP in fed and fasted mice might be a specific response to nutritional signals. To explore this, experiments were performed to determined when the hypothalamic TCPTP levels returned to the pre-fasted state, when 24 h fasted mice were re-fed for 4 h (FIG. 1a). Hypothalamic TCPTP protein, as assessed by immunoblotting MBH homogenates (FIG. 1c), or Ptpn2 expression, as assessed by real time PCR (FIG. 1d), declined to pre-fasted levels in re-fed mice. The decline in TCPTP occurred throughout the ARC (FIG. 8c). The decline in TCPTP was accompanied by increased IR and AKT phosphorylation (FIG. 1e), consistent with the potential enhancement of insulin sensitivity. Since the half-life for TCPTP protein is roughly 16 h (Bukczynska et al., 2004), we reasoned that the decline in TCPTP might reflect increased degradation. The proteasome can influence hypothalamic protein abundance in response to feeding (Sasaki et al., 2010). To test its contribution to TCPTP degradation in re-fed mice, we administered fasted (24 h) mice the proteasome inhibitor MG132 intracerebroventricularly (ICV) and assessed the influence on TCPTP protein in the MBH after 4 h of re-feeding.

[7] = system: diet-induced obese mice; assay: ICV RU486 for 10 consecutive days in 12-week high fat fed mice; conditions: ICV 1 μg/animal
Experimental: FIG. 16. […] 12 week high fat fed C57BL/6 male mice were mice were sham or bi-laterally denervated (6-ODHA) to prevent WAT browning and then administered the glucocorticoid antagonist RU486 intracerebroventricularly (ICV; 1 μg/animal), twice daily (9 am & […]) for 10 consecutive days. Effects on body weight and adiposity (EchoMRI and fad pad weight) were determined. WAT browning was assessed by gross morphology.
FIG. 17. A glucocorticoid antagonist promotes WAT browning and increases energy expenditure without any obvious adverse behavioral effects. […] Effects on energy expenditure (indirect calorimetry) and stereotypical behaviors were determined using the Promethion metabolic cage system.
FIG. 22. […] 12-week high fat fed C57BL/6 male mice received glucocorticoid antagonist (RU486: 0.1, 1 and 2 μg/animal/day, ICV) for 10 consecutive days and a) body weights, b) food intake, c) adiposity (EchoMRI and fad pad weight), d) energy expenditure were determined.
Insulin and glucose tolerance tests and blood glucose and plasma insulin were measured as described previously (Dodd et al., 2015 as above; Loh et al., 2009 Cell Metab 10, 260-272). Plasma corticosterone was measured by ELISA (Arbor Assays). […]
Effects on body weight and adiposity (EchoMRI and fat pad weight) were determined. […]
Effects on energy expenditure and stereotypical behaviours were determined using the Promethion metabolic cages system.

[8] = system: hypothalamic TCPTP (Ptpn2) expression; assay: ICV ghrelin, UDP or dexamethasone (plus or minus RU486) in re-fed mice; hypothalamic TCPTP immunohistochemistry and Ptpn2 real time PCR; conditions: for TCPTP protein levels (immunohistochemistry): ICV twice over 4 h in fasted and re-fed (4 h) mice
Experimental: Paraformaldehyde-fixed brains were extracted and processed for TCPTP immunohistochemistry. e) 8-week-old fed or 24 h fasted C57BL/6 male mice were administered (intraperitoneal) saline, or leptin (0.5 μg/g body weight, 45 min) and paraformaldehyde-fixed brains extracted for immunohistochemistry monitoring for STAT3 Y705 phosphorylation (p-STAT3) in the central-caudal ARC. f) Tissues from 8-week-old AgRP-TC mice were screened for the presence of the recombined Ptpn2 allele (ΔPtpn2) by PCR (Wiede et al., 2011). g) 8-week-old Ptpn2^fl/fl; Npy-hrGFP or AgRP-TC; Npy-hrGFP mice were perfused with paraformaldehyde and brains extracted and processed for immunohistochemistry monitoring for TCPTP in GFP-positive AgRP/NPY neurons in the central-caudal ARC. Yellow arrows depict TCPTP positive NPY cells, blue arrows depict TCPTP negative NPY cells. h) Brains from 8-week-old fed or 24 h fasted Ptpn2^fl/fl; Npy-hrGFP or AgRP-TC; Npy-hrGFP male mice were paraformaldehyde-fixed and processed for ARC p-AKT immunohistochemistry. i-j) 8-week-old Ptpn2^fl/fl or AgRP-TC male mice were fasted and injected (intraperitoneal) with saline, insulin (0.85 mU/g) or leptin (1 μg/g body weight) and hypothalami extracted 2 h later for quantitative PCR. k) 8-week-old Ptpn2^fl/fl; Npy-hrGFP or AgRP-TC; Npy-hrGFP male mice were fasted overnight and administered vehicle PBS or leptin (0.5 μg/g body weight, intraperitoneal) for 45 min and paraformaldehyde-fixed brains extracted and processed for immunofluorescence microscopy monitoring for p-STAT3 and GFP. l) Plasma insulin levels in 8-10-week-old fed or food restricted (just prior to lights out, 6:30 μm) C57BL/6 male mice.
Under 2% (v/v) isoflurane in 1 l/min oxygen 8-week-old AgRP-TC, Ptpn2^fl/fl or C57BL/6 mice were implanted stereotaxically with guide cannulas into the right lateral ventricle (0.2 mm posterior, 1.0 mm lateral from bregma). […] Mice received a second injection 2 h later and after a further 2 h mice were perfused with paraformaldehyde for immunohistochemical analysis, or hypothalami extracted for quantitative real time PCR.

[9] = system: 20-week high fat fed C57BL/6 male mice; assay: Intra-ARC infusion of TCPTP inhibitor in 20-week high fat fed mice switched to chow diet; conditions: intra-ARC 0.5 nmol/day at 0.25 ul/h, mice placed on chow diet (9% fat)
Experimental: FIG. 18. […] 2-weeks post AAV injection mice were placed on chow diet (9% fat) and weekly body weight was monitored. b) 20-week high fat fed (23% fat) C57BL/6 male mice were implanted with bilateral intraARC cannula connected to Alzet osmotic minipumps (Alzet, 1002) and infused with vehicle or TCPTP inhibitor (compound 8 as described herein, 0.5 nmol/day at a rate of 0.25 ul/h). Mice were placed on chow diet (9% fat) and daily body weight was monitored.
2-weeks post AAV injection mice were placed on chow diet (9% fat) and weekly body weight was monitored. b) 20-week high fat fed (23% fat) C57BL/6 male mice were implanted with bilateral intra-ARC cannula connected to Alzet osmotic minipumps (Alzet, 1002) and infused with vehicle or TCPTP inhibitor (compound 8, 0.5 nmol/day at a rate of 0.25 ul/h). Mice were placed on chow diet (9% fat) and daily body weight was monitored.

[10] = system: ARC PI3K/AKT signaling (p-AKT); assay: Insulin-induced ARC p-AKT (Ser-473) immunohistochemistry in fed or fasted mice; conditions: insulin 0.85 mU/g i.p., 15 min
Experimental: 4 weeks post rAAV injection mice were administered (intraperitoneal) saline or insulin (0.85 mU/g, 15 min) and paraformaldehyde-fixed brains extracted for ARC p-AKT or GFP (insert) immunohistochemistry. d) Fed or fasted Ptpn2^fl/fl or AgRP-TC male mice were administered (intraperitoneal) saline or insulin (0.85 mU/g, 15 min) and paraformaldehyde-fixed brains extracted for ARC p-AKT immunohistochemistry. e) Fed or fasted Ptpn2^fl/fl versus AgRP-TC male mice on the Npy-hrGFP reporter background processed for c-Fos ARC immunohistochemistry. f) Whole-cell patch clamp recordings of hypothalamic NPY neurons from Ptpn2^fl/fl; Npy-hrGFP versus AgRP-TC; Npy-hrGFP male mice in response to insulin. […] Representative and quantified results (means±SEM) are shown for the indicated number of mice.
Mice were injected intraperitoneally with either vehicle, leptin (0.5-1.0 μg/g; Peprotech, Rehovot, Israel) for p-STAT-3 (Y705) or human insulin (0.85 mU/g, SIGMA, St Louis, Mo.) for p-AKT (Ser-473). Mice were transcardically perfused either 15 min (for p-AKT staining) or 45 min (for p-STAT3 staining) post-injection with a solution of 4% w/v (for p-AKT staining) paraformaldehyde. The brains were post-fixed overnight and then kept for two days in 30% (w/v) sucrose in 0.1 M phosphate buffer to cryoprotect the tissue, before freezing on dry ice. […]

With `C[N+]1([O-])CCN(C2=Nc3cc(Cl)ccc3Nc3ccccc32)CC1` [CNO, clozapine-N-oxide] the body weights [1] was “decreased”, the food intake [1] was “decreased” and the WAT browning ([1]; sham-operated vs 6-OHDA denervated inguinal fat pads) was “marked WAT browning in the sham-operated, but not in the contralateral 6-OHDA denervated inguinal fat pads”.
In the case of `CC(C)CCC[C@@H](C)[C@H]1CC[C@H]2[C@@H]3C[C@@H](NCCCNCCCCNCCCN)C4C[C@@H](O)CC[C@]4(C)[C@H]3CC[C@]12C` (stereo partly drawn) [Claramine, (3β3,6β3)-6-[[3-[[4-[(3-Aminopropyl)amino]butyl]amino]propyl]amino]-cholestan-3-ol], the “adiposity (EchoMRI and fad pad weight)” value [2] is reported as “dose dependent attenuation”, the body weights [2] is reported as “dose dependent attenuation” and the food intake [2] is reported as “dose dependent attenuation”. For the same compound, the adaptive thermogenesis [3] was “dose dependent effect”, the adiposity [3] was “dose dependent effect” and the body weight [3] was “dose dependent effect”. The food intake [3] was “dose dependent effect”, the “adverse side effects as cause of reduced food intake” value [4] was “not by adverse side effects such as sedation or nausea” and the behavioral satiety sequence ([4]; overnight fasted, presented with food) was “dose dependent shift”.
For `CC(C)C[C@@H](C=O)NC(=O)[C@H](CC(C)C)NC(=O)[C@H](CC(C)C)NC(=O)OCc1ccccc1` [MG132] (Cbz-Leu-Leu-Leu-aldehyde), the PTP1B levels [5] was “without affecting” and the “feeding-induced degradation of TCPTP” value [6] was “completely prevented”.
With `CC#C[C@]1(O)CC[C@H]2[C@@H]3CCC4=CC(=O)CCC4=C3[C@@H](c3ccc(N(C)C)cc3)C[C@@]21C` [RU486, 17-beta-hydroxy-11-beta-(4-dimethyl-aminophenyl)-17-alpha(1-propynyl)-estra-4,9-dien-3-one] the adverse behaviours [7] was “not accompanied by adverse behaviours such as inactivity, hyperactivity or sedation”.
With `O=c1ccn([C@@H]2O[C@H](COP(=O)(O)OP(=O)(O)O)[C@@H](O)[C@H]2O)c(=O)[nH]1` [UDP, uridine 5′-diphosphate] the “TCPTP protein levels (immunohistochemistry)” value [8] was “Neither ghrelin nor UDP overtly altered”.
For `CCc1ccc(C(=O)NCCCCC(NC(=O)C(Cc2ccc(C(F)(F)P(=O)(O)O)cc2)NC(=O)C(Cc2ccccc2)NC(=O)COC2CC(C)CCC2C(C)C)C(N)=O)cc1` (stereo not drawn) [compound 8], the “diet-induced weight loss (daily body weight)” value [9] was “enhances diet-induced weight loss”.
ghrelin was tested, and the “TCPTP protein levels (immunohistochemistry)” value [8] was “Neither ghrelin nor UDP overtly altered” and the “increase in Ptpn2 message” value ([8]; ICV twice over 4 h in re-fed mice, real time PCR) was ~3 fold.
insulin: human insulin (SIGMA) was tested, and the “ARC p-AKT in response to insulin” value ([10]; 24 h fasted C57BL6 mice) was “only modestly increased” and the “induction of ARC p-AKT in response to insulin” value ([10]; fed C57BL6 mice) was 3-4 fold.
